Results taken from the supplement of paper PMC10307832.

Columns and labels:
Test in all cases: relative viability (nuclei count vs DMSO), 5 days (fraction); higher = more cells survive
Decitabine + Palbociclib = compound: Nc1ncn([C@H]2C[C@H](O)[C@@H](CO)O2)c(=O)n1 [Decitabine] + CC(=O)c1c(C)c2cnc(Nc3ccc(N4CCNCC4)cn3)nc2n(C2CCCC2)c1=O [Palbociclib] (partner 0.5 µM)
Method in brief: (§1)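 A single step with final 0.05% Triton X-100, 1% formaldehyde and 1 ug/ml Hoechst fixed the cells and stained nuclei 5 days after treatment. Lung cancer cell lines in 1536-well plates had been treated by pin tool the day after seeding with one drug alone or a fixed anchor-drug dose plus five library-drug doses (not always all listed) in √10 steps, and nuclei were counted on 4× images. Relative viability is the ratio of nuclei in treated wells to nuclei in vehicle wells, taken as the median of duplicate plates.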

[1] = compound: O=C(C[C@H]1NCCC[C@@H]1O)Cn1cnc2cc(Br)c(Cl)cc2c1=O (racemic) [Halofuginone] + CC(=O)Nc1cccc(-n2c(=O)n(C3CC3)c(=O)c3c(Nc4ccc(I)cc4F)n(C)c(=O)c(C)c32)c1 [Trametinib] (partner 0.02 µM)
Method in brief: as §1

[2] = compound: O=C(C[C@H]1NCCC[C@@H]1O)Cn1cnc2cc(Br)c(Cl)cc2c1=O (racemic) [Halofuginone] + C[C@@H](Oc1cc(-c2cnn(C3CCNCC3)c2)cnc1N)c1c(Cl)ccc(F)c1Cl [Crizotinib] (partner 1 µM)
Method in brief: as §1

Halofuginone + AZD7762 = compound: O=C(C[C@H]1NCCC[C@@H]1O)Cn1cnc2cc(Br)c(Cl)cc2c1=O (racemic) [Halofuginone] + NC(=O)Nc1cc(-c2cccc(F)c2)sc1C(=O)N[C@H]1CCCNC1 [AZD7762] (partner 0.2 µM)
Method in brief: as §1

Cell Line	relative viability (Decitabine + Palbociclib; first compound 0.04 µM)	relative viability (Decitabine + Palbociclib; first compound 0.1265 µM)	relative viability (Decitabine + Palbociclib; first compound 0.4 µM)	relative viability (Decitabine + Palbociclib; first compound 1.265 µM)	relative viability (Decitabine + Palbociclib; first compound 4 µM)	relative viability ([1]; first compound 0.001 µM)	relative viability ([1]; first compound 0.003162 µM)	relative viability ([1]; first compound 0.01 µM)	relative viability ([1]; first compound 0.03162 µM)	relative viability ([1]; first compound 0.1 µM)	relative viability ([2]; first compound 0.001 µM)	relative viability ([2]; first compound 0.003162 µM)	relative viability ([2]; first compound 0.01 µM)	relative viability ([2]; first compound 0.03162 µM)	relative viability ([2]; first compound 0.1 µM)	relative viability (Halofuginone + AZD7762; first compound 0.001 µM)	relative viability (Halofuginone + AZD7762; first compound 0.003162 µM)	relative viability (Halofuginone + AZD7762; first compound 0.01 µM)	relative viability (Halofuginone + AZD7762; first compound 0.03162 µM)	relative viability (Halofuginone + AZD7762; first compound 0.1 µM)
HCC-15	0.776	0.591	0.412	0.38	0.441	0.415	0.412	0.399	0.368	0.31	0.827	0.887	0.737	0.826	0.657	1.19	1.26	1	1.18	1.2
HCC-44	1.01	0.935	0.808	0.761	0.873	1.04	1.1	1.05	1.13	0.966	0.89	0.833	0.72	0.745	0.516	1.06	1.01	1.02	1.03	1.05
HCC-78	0.483	0.554	0.487	0.436	0.423	0.775	0.718	0.709	0.766	0.503	0.396	0.356	0.314	0.341	0.237	0.657	0.672	0.55	0.652	0.643
HCC-366	0.306	0.244	0.175	0.0803	0.0669	0.395	0.404	0.338	0.322	0.166	0.759	0.515	0.607	0.544	0.0412	0.282	0.321	0.323	0.336	0.317
HCC-827	0.231	0.311	0.294	0.262	0.181	0.591	0.524	0.515	0.575	0.433	0.913	0.893	0.895	0.973	0.798	0.242	0.183	0.217	0.2	0.253
HOP-62	0.326	0.327	0.195	0.136	0.273	0.419	0.407	0.383	0.411	0.235	0.905	0.958	0.971	0.972	0.676	0.573	0.676	0.47	0.599	0.327
LC-2-ad	0.498	0.538	0.48	0.365	0.463	0.897	0.988	0.936	0.917	0.701	0.555	0.472	0.431	0.516	0.439	0.841	0.878	0.831	0.885	0.576
LCLC-97TM1	0.207	0.197	0.171	0.152	0.22	0.241	0.192	0.187	0.185	0.173	0.394	0.297	0.31	0.266	0.237	0.33	0.18	0.211	0.22	0.237
LCLC-103H	0.429	0.49	0.444	0.442	0.501	0.659	0.682	0.666	0.661	0.658	1.09	1	0.972	0.948	0.85	0.808	0.851	0.784	0.793	0.695
LK-2	0.655	0.66	0.327	0.236	0.238	0.853	0.775	0.592	0.823	0.519	0.198	0.242	0.198	0.229	0.208	0.583	0.432	0.487	0.491	0.281
LOU-NH91	0.514	0.592	0.588	0.507	0.415	0.819	0.817	0.724	0.778	0.697	0.782	0.718	0.714	0.964	0.688	0.793	0.735	0.767	0.691	0.664
LU99A	0.39	0.434	0.445	0.321	0.291	0.554	0.598	0.545	0.589	0.536	0.632	0.556	0.558	0.499	0.41	0.323	0.347	0.384	0.327	0.346
LXF-289	0.539	0.418	0.346	0.27	0.238	0.688	0.717	0.66	0.707	0.676	0.829	0.737	0.746	0.825	0.653	1.08	1.17	1.02	1.12	1.01
NCI-H23	0.413	0.372	0.295	0.28	0.271	0.413	0.407	0.392	0.402	0.217	0.582	0.724	0.486	0.609	0.218	0.32	0.184	0.223	0.233	0.246
NCI-H322M	0.439	0.485	0.554	0.479	0.463	0.512	0.441	0.513	0.479	0.423	0.982	0.911	0.906	1.01	0.77	0.517	0.708	0.526	0.614	0.426
NCI-H358	0.179	0.118	0.114	0.13	0.135	0.158	0.138	0.12	0.119	0.0998	0.832	0.678	0.467	0.253	0.0914	0.496	0.492	0.447	0.246	0.149

Cell Line	relative viability (Decitabine + Palbociclib; first compound 0.04 µM)	relative viability (Decitabine + Palbociclib; first compound 0.1265 µM)	relative viability (Decitabine + Palbociclib; first compound 0.4 µM)	relative viability (Decitabine + Palbociclib; first compound 1.265 µM)	relative viability (Decitabine + Palbociclib; first compound 4 µM)	relative viability ([1]; first compound 0.001 µM)	relative viability ([1]; first compound 0.003162 µM)	relative viability ([1]; first compound 0.01 µM)	relative viability ([1]; first compound 0.03162 µM)	relative viability ([1]; first compound 0.1 µM)	relative viability ([2]; first compound 0.001 µM)	relative viability ([2]; first compound 0.003162 µM)	relative viability ([2]; first compound 0.01 µM)	relative viability ([2]; first compound 0.03162 µM)	relative viability ([2]; first compound 0.1 µM)	relative viability (Halofuginone + AZD7762; first compound 0.001 µM)	relative viability (Halofuginone + AZD7762; first compound 0.003162 µM)	relative viability (Halofuginone + AZD7762; first compound 0.01 µM)	relative viability (Halofuginone + AZD7762; first compound 0.03162 µM)	relative viability (Halofuginone + AZD7762; first compound 0.1 µM)
NCI-H441	0.214	0.198	0.183	0.138	0.205	0.48	0.428	0.493	0.471	0.233	0.967	1.1	0.677	0.694	0.311	1.13	1.35	1.18	1.3	0.599
NCI-H460	0.174	0.289	0.185	0.0847	0.0625	0.115	0.197	0.172	0.0823	0.022	1.05	1.06	0.866	0.409	0.0383	0.725	0.601	0.673	0.605	0.305
NCI-H647	0.269	0.489	0.236	0.123	0.117	0.499	0.574	0.421	0.336	0.292	0.942	1.13	0.978	0.834	0.0795	0.489	0.451	0.52	0.388	0.416
NCI-H650	0.268	0.243	0.198	0.191	0.182	0.898	1.19	1.09	1.08	0.77	0.77	0.714	0.73	0.604	0.344	1.06	0.848	1.21	1	0.594
NCI-H727	0.641	0.608	0.653	0.617	0.6	0.44	0.362	0.403	0.406	0.422	0.689	1.04	0.771	0.574	0.234	0.777	0.551	0.72	0.677	0.634
NCI-H838	0.259	0.275	0.194	0.211	0.199	0.504	0.518	0.468	0.38	0.191	0.904	0.799	0.815	0.718	0.134	1.02	0.799	0.933	0.876	0.751
NCI-H1355	0.374	0.345	0.329	0.275	0.277	0.481	0.429	0.4	0.415	0.4	1.04	1.04	1.08	1.08	0.921	0.801	0.81	0.688	0.73	0.616
NCI-H1437	0.343	0.321	0.247	0.265	0.28	0.548	0.553	0.558	0.481	0.387	0.935	0.918	0.807	0.73	0.841	1.11	1.08	1.07	1.17	1.11
NCI-H1651	0.522	0.508	0.515	0.389	0.403	0.8	0.853	0.804	0.819	0.806	0.922	0.899	0.88	0.848	0.798	0.485	0.487	0.476	0.457	0.466
NCI-H1666	0.692	0.684	0.675	0.553	0.647	0.944	0.852	0.79	0.865	0.68	1.02	1.02	0.948	0.913	0.582	0.811	0.711	0.84	0.841	0.956
NCI-H1734	0.331	0.338	0.32	0.284	0.236	0.68	0.721	0.733	0.602	0.171	0.738	0.718	0.67	0.659	0.277	0.558	0.619	0.52	0.576	0.269
NCI-H1755	0.461	0.495	0.424	0.431	0.407	0.793	0.786	0.745	0.774	0.765	0.916	0.884	0.806	0.869	0.348	0.442	0.407	0.469	0.399	0.303
NCI-H1792	0.753	0.76	0.646	0.595	0.512	0.402	0.469	0.51	0.522	0.18	1.04	0.973	0.985	0.959	1.03	0.684	0.722	0.585	0.541	0.234
NCI-H1915	0.328	0.209	0.22	0.194	0.192	0.319	0.291	0.28	0.297	0.262	0.897	0.954	0.813	0.894	0.73	0.7	0.682	0.736	0.656	0.68
NCI-H1944	0.331	0.32	0.313	0.294	0.281	0.394	0.437	0.417	0.43	0.355	1.1	1.19	1.11	1.05	0.803	0.524	0.446	0.544	0.669	0.381
NCI-H1975	0.395	0.46	0.285	0.231	0.301	0.448	0.317	0.361	0.298	0.157	1.12	0.91	1.01	0.628	0.184	0.737	0.792	0.666	0.644	0.402
